# Source: patent publication US7572753B2 (priority 2005, dated 2009)
# Tested on: Pyricularia oryzae
# Type: in vivo
# Conditions: 300 ppm, greenhouse foliar application spray on rice (var. Lemont) plants, inoculated within 24 hours from spraying
compound,measurement,value
"N#CCn1nnc(-c2ccccc2)n1 [Example 1, 5-phenyl-2H-tetrazole-2-acetonitrile]","Percent (%) disease control, Rice Blast",70%
